The test system of this test is 997537-175-T-J1-PDC complex spheroid viability. Kind of test: Anticancer human tumor 997537-175-T-J1-PDC patient-derived colon adenocarcinoma cell line growth inhibition [GQUAD]. To be noted: for viability, T/C: stronger effect = lower value. The source says:
DNA G-quadruplex Stabilizer Agents in Combinations in Complex Spheroids
A high-throughput screen of multi-cell type tumor spheroids was designed to identify active combinations of DNA G-quadruplex stabilizer agents and targeted small molecules. Complex spheroids include a stromal component modeled by human endothelial cells (HUVEC) and fibroblasts modeled by human mesenchymal stem cells (MSCs). The concentration ranges selected for each drug and investigational agent were based upon clinically achievable concentrations if the clinical Cmax of the agent was known.
Compounds. The drugs and investigational agents: pidnarulex (CX-5461; NSC782164), APTO-253 (NSC789042), BRACO-19 (NSC847499), peposertib (NSC802822), ceralasertib (NSC780249), elimusertib (NSC800525), camonsertib (NSC841442), AZD-1390 (NSC803789), olaparib (NSC753686), talazoparib (NSC767125), ART-558 (NSC835418), sotorasib (NSC818433), MRTX-1133 (NSC836407), SN-38 (NSC673596), topotecan (NSC609699), etoposide (NSC141540), doxorubicin (NSC123127), gemcitabine (NSC613327), 5-fluorouracil (NSC19893), paclitaxel (NSC125973), vemurafenib (NSC761431), panobinostat (NSC761190), R-306465 (JNJ-16241199; NSC773264), adavosertib (NSC754352), TP-3654 (NSC805149), carboplatin (NSC241240), KSQ-4279 (NSC840948), and staurosporine (NSC755774) were obtained from the National Cancer Institute (NCI) Developmental Therapeutics Program Chemical Repository (34). The FDA-approved anticancer drug set is available from the NCI Developmental Therapeutics Program. […] The stock solutions were prepared in dimethyl sulfoxide (DMSO, Sigma-Aldrich, St. Louis, MO, cat. D2650) at 800-fold the tested concentration and stored at -70 degrees C prior to their use. All drugs and investigational agents were tested over a range starting from a high concentration at or near the clinical Cmax and decreasing in half-log increments. If the clinical Cmax for an agent had not been determined, the highest concentration tested was 10 microM.
2.3 Cell Culture. All cells were maintained in an incubator at 37 degrees C and 5% CO2 with 95% humidity. The PDC lines were cultured according to standard operating procedures established by the NCI PDMR. All PDCs were thawed and cultured in Matrigel-coated flasks prepared with a working solution of 1X Ham's F-12 nutrient mix, without supplementation (Invitrogen, cat. 11765054), 100 U/mL penicillin-streptomycin (Invitrogen, cat. 15140122), and 2.5% Matrigel (Corning Inc., cat. 354248) for the first three passages. The 857933-349-R-J2-PDC line was cultured in 6C/Colon 1B media, which includes advanced DMEM/F-12 (Thermo Fisher Scientific, cat. 12634028), 10 mM HEPES (Thermo Fisher Scientific, cat. 15630080), 1X GlutaMAX supplement (Thermo Fisher Scientific, cat. 35050061), 0.1 mg/mL primocin (InvivoGen, cat. ant-pm-2), 10% defined fetal bovine serum, heat inactivated (HyClone Laboratories Inc., cat. SH30070.03HI), 50% L-WRN conditioned media (ATCC, cat. CRL-3276), 1.25 mM N-Acetyl-L-cysteine (Sigma-Aldrich, cat. A9165), 10 mM nicotinamide (Sigma-Aldrich, cat. N0636), 1X B-27 supplement (Thermo Fisher Scientific, cat. 17504044), 1X N-2 supplement (Thermo Fisher Scientific, cat. 17502048), 10 microM Y-27632 dihydrochloride (Tocris Bioscience, cat. 1254), and 50 ng/mL human EGF recombinant protein (Thermo Fisher Scientific, cat. PHG0311). The 485176-168-R4-J1-PDC line was cultured in Panc media, which includes all 6C/Colon 1B media components plus 100 ng/mL human FGF-10 (Thermo Fisher Scientific, cat. 100-26), 500 nM SB-431542 (Selleckchem, cat. S1067), and gastrin (Tocris, cat. 3006).
[…]

The mark [1] stands for this setting: curve of first compound, second compound 0.0316 µM.
The mark [2] stands for this setting: curve of first compound, second compound 0.1 µM.
[3] abbreviates: curve of first compound, second compound 0.316 µM.
[4] abbreviates: curve of first compound, second compound 1 µM.
Setting [5] is: curve of first compound, second compound 3.16 µM.
The mark [6] stands for this setting: curve of first compound, second compound 10 µM.
[7] abbreviates: second compound 0.0316 µM, first compound 0.0316 µM.
Setting [8] is: second compound 0.0316 µM, first compound 0.1 µM.
Where [9] appears, read: second compound 0.0316 µM, first compound 0.316 µM.
The mark [10] stands for this setting: second compound 0.0316 µM, first compound 1 µM.
Setting [11] is: second compound 0.0316 µM, first compound 3.16 µM.
The mark [12] stands for this setting: second compound 0.0316 µM, first compound 10 µM.
[13] abbreviates: second compound 0.1 µM, first compound 0.0316 µM.
Setting [14] is: second compound 0.1 µM, first compound 0.1 µM.
Where [15] appears, read: second compound 0.1 µM, first compound 0.316 µM.
The mark [16] stands for this setting: second compound 0.1 µM, first compound 1 µM.
The mark [17] stands for this setting: second compound 0.1 µM, first compound 3.16 µM.
Setting [18] is: second compound 0.1 µM, first compound 10 µM.
Where [19] appears, read: second compound 0.316 µM, first compound 0.0316 µM.
Where [20] appears, read: second compound 0.316 µM, first compound 0.1 µM.
[21] abbreviates: second compound 0.316 µM, first compound 0.316 µM.
The mark [22] stands for this setting: second compound 0.316 µM, first compound 1 µM.
Setting [23] is: second compound 0.316 µM, first compound 3.16 µM.
Where [24] appears, read: second compound 0.316 µM, first compound 10 µM.
[25] abbreviates: second compound 1 µM, first compound 0.0316 µM.
[26] abbreviates: second compound 1 µM, first compound 0.1 µM.
[27] abbreviates: second compound 1 µM, first compound 0.316 µM.
[28] abbreviates: second compound 1 µM, first compound 1 µM.
Where [29] appears, read: second compound 1 µM, first compound 3.16 µM.
Setting [30] is: second compound 1 µM, first compound 10 µM.
Setting [31] is: second compound 3.16 µM, first compound 0.0316 µM.
Setting [32] is: second compound 3.16 µM, first compound 0.1 µM.
Where [33] appears, read: second compound 3.16 µM, first compound 0.316 µM.
Where [34] appears, read: second compound 3.16 µM, first compound 1 µM.
Where [35] appears, read: second compound 3.16 µM, first compound 3.16 µM.
[36] abbreviates: second compound 3.16 µM, first compound 10 µM.
[37] abbreviates: second compound 10 µM, first compound 0.0316 µM.
The mark [38] stands for this setting: second compound 10 µM, first compound 0.1 µM.
Setting [39] is: second compound 10 µM, first compound 0.316 µM.
The mark [40] stands for this setting: second compound 10 µM, first compound 1 µM.
[41] abbreviates: second compound 10 µM, first compound 3.16 µM.
Setting [42] is: second compound 10 µM, first compound 10 µM.

“And” between values parts separate entries of the source, which are not always exact repeats. Equal entries are not always repeated. Bounds are passed on as bounds.
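Note: spheroids exposed to the agents for 7 days.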

What is called viability, T/C is the result in the treated group divided by that in the control group, in per cent. The IC50 is the midpoint of a concentration-inhibition curve. For the molecule `C=CCn1c(=O)c2cnc(Nc3ccc(N4CCN(C)CC4)cc3)nc2n1-c1cccc(C(C)(C)O)n1`, the viability, T/C was 95.7% and 89.4% and 112% (compound 0.0316 µM); 75.6% and 101% and 92.2% (compound 0.1 µM); 81.8% and 88.3% and 92.2% (compound 0.316 µM); 80.2% and 84.5% and 79.4% (compound 1 µM); 73.2% and 44.9% and 49.3% (compound 3.16 µM); 28.9% and 30.8% and 24.2% (compound 10 µM). Besides, the IC50 (curve of compound) was 5.75 µM and 2.73 µM and 3.53 µM.

With `C#Cc1c(F)ccc2cc(O)cc(-c3ncc4c(N5CC6CCC(C5)N6)nc(OCC56CCCN5CC(F)C6)nc4c3F)c12` (stereo unspecified) + Cc1cnc(CNC(=O)c2c(=O)c3ccc(N4CCCN(C)CC4)nc3n3c2sc2ccccc23)cn1, the IC50 is, setting by setting: under setting [1], above 10 µM; under setting [2], above 10 µM; under setting [3], above 10 µM; under setting [4], above 10 µM; under setting [5], above 10 µM; under setting [6], above 10 µM. Also, the viability, T/C by setting is: under setting [7], 102%; under setting [8], 85.6%; under setting [9], 101%; under setting [10], 74.9%; under setting [11], 75.7%; under setting [12], 111%. The viability, T/C was 92.2% under setting [13]; 90.2% under setting [14]; 101% under setting [15]; 80.8% under setting [16]; 104% under setting [17]; 109% under setting [18]. Moreover, the viability, T/C under setting [19] is 83.4%; the viability, T/C under setting [20] was 83.6%; the viability, T/C under setting [21] was 92.1%; the viability, T/C under setting [22] is 97.3%; the viability, T/C under setting [23] was 79.9%; the viability, T/C under setting [24] is 108%. The viability, T/C is, setting by setting: under setting [25], 72.3%; under setting [26], 101%; under setting [27], 85%; under setting [28], 98%; under setting [29], 105%; under setting [30], 113%. Further, the viability, T/C is, setting by setting: under setting [31], 91.2%; under setting [32], 108%; under setting [33], 95.2%; under setting [34], 99.1%; under setting [35], 96.3%; under setting [36], 106%. Besides, the viability, T/C is, setting by setting: under setting [37], 77%; under setting [38], 100%; under setting [39], 93.1%; under setting [40], 97.9%; under setting [41], 127%; under setting [42], 110%.

Turning to `CC(C)n1c(=O)n(C)c2cnc3cc(F)c(-c4ccc(OCCCN5CCCCC5)nc4)cc3c21`, the viability, T/C is 97.6% and 103% and 97% (compound 0.0316 µM); 90.3% and 99.9% and 82.4% (compound 0.1 µM); 110% and 106% and 99.8% (compound 0.316 µM); 107% and 99.2% and 103% (compound 1 µM); 83.5% and 78.7% and 101% (compound 3.16 µM); 83.4% and 93.4% and 92% (compound 10 µM). The IC50 (curve of compound) was above 10 µM.

With `CC(C)n1c(=O)n(C)c2cnc3cc(F)c(-c4ccc(OCCCN5CCCCC5)nc4)cc3c21` + Cc1[nH]c2ccc(F)cc2c1-c1nc2c3cccnc3c3ncccc3c2[nH]1, the IC50 by setting is: under setting [1], above 10 µM; under setting [2], above 10 µM; under setting [3], above 10 µM; under setting [4], above 10 µM; under setting [5], above 10 µM; under setting [6], above 10 µM. In addition, the viability, T/C is 117% under setting [7]; 104% under setting [8]; 112% under setting [9]; 98.2% under setting [10]; 113% under setting [11]; 106% under setting [12]. Besides, the viability, T/C under setting [13] was 121%; the viability, T/C under setting [14] is 97.6%; the viability, T/C under setting [15] was 97.6%; the viability, T/C under setting [16] was 95.6%; the viability, T/C under setting [17] is 108%; the viability, T/C under setting [18] was 99.9%. Besides, the viability, T/C runs as follows: under setting [19], 94.2%; under setting [20], 103%; under setting [21], 88.8%; under setting [22], 77.9%; under setting [23], 116%; under setting [24], 84%. The viability, T/C by setting is: under setting [25], 86.4%; under setting [26], 109%; under setting [27], 91.1%; under setting [28], 107%; under setting [29], 112%; under setting [30], 98.8%. The viability, T/C under setting [31] was 89.3%; the viability, T/C under setting [32] was 100%; the viability, T/C under setting [33] is 100%; the viability, T/C under setting [34] was 93.2%; the viability, T/C under setting [35] was 98.2%; the viability, T/C under setting [36] was 90.5%. The viability, T/C by setting is: under setting [37], 81.5%; under setting [38], 79.9%; under setting [39], 95.7%; under setting [40], 79.9%; under setting [41], 88.9%; under setting [42], 72.5%.

For the molecule `CC1COCCN1c1cc(C2(O)CC3CCC(C2)O3)c2cnn(-c3ccn[nH]3)c2n1` (stereo unspecified), the viability, T/C by setting is: (compound 0.0316 µM) 86.8% and 86.6% and 96.4%; (compound 0.1 µM) 57.4% and 66.7% (2×); (compound 0.316 µM) 50.3% and 53.8% and 37.7%; (compound 1 µM) 51.1% and 54.5% and 70.1%; (compound 3.16 µM) 49.2% and 35.5% and 36.5%; (compound 10 µM) 44.9% and 33.9% and 48.4%. Further, the IC50 (curve of compound) is 0.345 µM and 0.701 µM and 0.282 µM.

In the case of `O=C(NO)c1cnc(N2CCN(S(=O)(=O)c3ccc4ccccc4c3)CC2)nc1`, the viability, T/C by setting is: (compound 0.0316 µM) 65.3% and 97.2% and 113%; (compound 0.1 µM) 24.7% and 95.1% and 86.5%; (compound 0.316 µM) 47.4% and 101% and 105%; (compound 1 µM) 41.2% and 82% and 69%; (compound 3.16 µM) 42.8% and 22.4% and 27.3%; (compound 10 µM) 23.3% and 0.34% and 0.28%.

(Values after PubChem BioAssay AID2060487 (Molecular Pharmacology Branch, DTP, NCI, 2025).)
